Where a SMILES comes first, the peptide text is derived from it.
SMILES	logP
CC(=O)OCC1=C(C(=O)O)N2C(=O)[C@@H](NC(=O)Cc3ccccc3)[C@H]2SC1	0.2
O=S(=O)(c1ccccc1)C(F)(F)F	2.68
COc1ccc(CNc2[nH]cnc3ncnc2-3)cc1	2.17
CC(=O)N(O)CCCCCNC(=O)CCC(=O)N(O)CCCCCNC(=O)CCC(=O)N(O)CCCCCNS(C)(=O)=O	-0.36
O=C(O)c1ccccc1NC(=O)c1c(O)cccc1O	3.52
COc1ccc(C2Cc3c(Cl)cccc3N(CCN(C)C)C(=O)C2OC(C)=O)cc1 (configuration not stated)	4.4
CNc1ccc2cc3ccc4c(c3nc2c1CO)COCN4	1.65
C=C(C)C(=O)OCCCCCCCC(C)C	5.28
CCON=C(CC)C1=C(O)CC(c2cccc(Oc3ccc(Cl)c(Cl)c3)c2)CC1=O (configuration not stated)	6.32
O=c1ssc(-c2ccccc2)c1-c1ccccc1	4.07
CCOC(=O)c1cccc(N(C)C)c1	3.19
O=C(Cc1ccccc1)c1c(O)c2ccc(Cl)cc2[nH]c1=O	3.66
c1cc2cc3c(cc2cn1)OCO3	1.75
CCCC(=NOCC)C1=C(O)CC(C)(C2CC2)OC1=O (configuration not stated)	3.28
O=[N+]([O-])c1ccc(CSc2ncnc3c(C4OC(CO)C(O)C4O)n[nH]c23)cc1 (configuration not stated)	0.5
Cc1cccc(Nc2ccncc2S(=O)(=O)NC(=O)NC(C)C)c1	3.37
O=c1cc(-c2c(Cl)cccc2Cl)oc2ccccc12	3.79
COc1cc(S(C)=O)ccc1-c1cn2cc(N)cnc2n1 (configuration not stated)	0.37
COC(=O)C(C)NP(=O)(OCC1C=CC(n2cc(C)c(=O)[nH]c2=O)O1)Oc1cccc(I)c1 (configuration not stated)	1.78
NC(=O)c1cccc2nc(N)nc(N)c12	-0.33
CN1CCN(CCn2nc3ccccc3n2)CC1	0.74

SMILES	logP
COc1ccc(Nc2nc(O)nc(NC(C)C)n2)cc1OC	3.49
Cc1c2oc(=O)ccc2c(C)c2c(C)coc12	3.35
CC1(C(Cl)Cl)C2C(Cl)C(Cl)C1(C(Cl)Cl)C(Cl)C2Cl (configuration not stated)	5.52
Cc1cccc(Cc2c[nH]cn2)c1	2.39
NC(Cc1ccc(O)cc1)C(=O)NCC(=O)NC(Cc1ccccc1)C(=O)O (stereo not drawn) (H-Tyr-Gly-Phe-OH; configuration not given here)	-1.86
COc1ccc(C2Cc3c(C)cccc3N(CCN(C)C)C(=O)C2OC(C)=O)cc1 (configuration not stated)	3.7
C=CCNC(=O)N(CCCCC(NC(C)=O)C(=O)NCc1ccccc1)Cc1ccccc1 (configuration not stated)	1.98
CCCCCCCOc1ccccc1NC(=O)OC(C)CN(CC)CC (configuration not stated)	5.7
CCc1cccc(Nc2ccncc2S(=O)(=O)NC(=NC#N)NC(C)C)c1	2.4
CC(C)NC(=S)NS(=O)(=O)c1cnccc1NC1CCCCCCC1	4.2
CN1CCN(C2=NC(=O)N(c3ccc(Cl)cc3)C2)CC1	2.2
COc1ccc(C2=NC(C)(C(=O)O)CS2)c(O)c1OC (configuration not stated)	1.4
Cc1cc2c(C)c3ccc(=O)oc3cc2o1	2.84
CC(C)OC(=O)C(=Cc1ccccc1)S(=O)(=O)c1ccc([N+](=O)[O-])cc1	3.62
CN1CCN(CCCOn2nnc3ccccc32)CC1	1.3
c1ccc(Nc2nnc(Cn3ccc4ccccc43)s2)cc1	3.47
Cc1coc2nc3oc(=O)ccc3c(C)c12	1.71
CC(C)(C)[N+]([O-])=Cc1ccccc1O	1.3
CCC(C)C(NC(=O)C(Cc1ccccc1)NC(=O)C(CCSC)NC(=O)C(N)C(C)C)C(=O)O (configuration not stated) (H-VMFI-OH; configuration not given here)	-0.63
CCCOc1ccccc1NC(=O)OCCN1CCCCC1	4.23
COc1ccc(C2Cc3cc(SC)ccc3N(CCN(C)C)C(=O)C2OC(C)=O)cc1 (configuration not stated)	4

SMILES	logP
CC(C)CC(N)C(=O)N1CCCC1C(=O)NC(CC(C)C)C(=O)NC(CC(C)C)C(=O)O (configuration not stated) (H-LPLL-OH; configuration not given here)	-0.92
CCc1ccc2c(c1)OCCOCCOCCOCCOCCO2	0.98
Cc1c(C)c2cc3ccoc3c(C)c2oc1=O	3.25
Cc1ccc(CO)c(C=NNC(=O)c2ccc([N+](=O)[O-])cc2)c1O	3.03
CC12CCC(c3c1ssc3=S)C2(C)C (configuration not stated)	3.8
CN(C)CCc1ccccc1	2.38
COc1c2oc(=O)ccc2cc2ccsc12	2.66
CCC(C)C(N)C(=O)NC(C)C(=O)NCC(=O)NC(Cc1ccccc1)C(=O)O (configuration not stated) (H-IAGF-OH; configuration not given here)	-1.78
CCCCCCC(Nc1ccc([N+](=O)[O-])cc1[N+](=O)[O-])C(=O)O (configuration not stated)	4.2
Cc1ccccc1C=[N+]([O-])C(C)(C)C	1.5
CC(=O)OC1C(C)OC(n2cc(F)c(=O)[nH]c2=O)C1OC(C)=O (configuration not stated)	-0.02
CC(C)OC(=O)CC(C(=O)OC(C)C)S(=O)(=O)c1ccc([N+](=O)[O-])cc1 (configuration not stated)	2.18
COC(=O)c1c(N2CCOCC2)c(-c2ccc(Cl)cc2)cn1C(C)=O	3.5
CCCCC(=O)NCCCCCN(O)C(=O)CCC(=O)NCCCCCN(O)C(=O)CCC(=O)NCCCCCN(O)C(C)=O	0.88
CCC1OC(Cn2cncn2)(c2ccc(Cl)cc2Cl)OC1C (configuration not stated)	3.41
OC(CNCC(O)C1CCc2cc(F)ccc2O1)C1CCc2cc(F)ccc2O1 (configuration not stated)	4.04
COc1ccc(O)c(C2=NC(C)(C(=O)O)CS2)c1 (configuration not stated)	1.8
CC(C)CC(N)C(=O)NC(CC(C)C)C(=O)NC(CC(C)C)C(=O)O (stereo not drawn) (H-Leu-Leu-Leu-OH; configuration not given here)	-0.94
Clc1cc(-c2ccc(Cl)c(Cl)c2Cl)cc(Cl)c1Cl	7.6
Cc1cc(=O)oc2c1cc(C)c1occ(C)c12	3.23
Nc1nnnn1-c1cccc([N+](=O)[O-])c1	0.67

SMILES	logP
CCCNc1ccncc1S(=O)(=O)NC(=NC#N)NC(C)C	0.35
COc1cccc(C=[N+]([O-])C(C)(C)C)c1	1.4
c1nc2nc[nH]c(N3CCC3)c-2n1	0.87
CCc1ccc(CNc2[nH]cnc3ncnc2-3)cc1	3.17
CC(=O)O[C@H]1[C@@H](O)C[C@H](O[C@H]2[C@@H](O)C[C@H](O[C@H]3[C@@H](O)C[C@H](O[C@H]4CC[C@@]5(C)[C@H](CC[C@@H]6[C@@H]5C[C@@H](O)[C@]5(C)[C@@H](C7=CC(=O)OC7)CC[C@]65O)C4)O[C@@H]3C)O[C@@H]2C)O[C@@H]1C	2
CCN(CC)CCC(=O)Nc1ccc(N)cc1	0.8
O=[N+]([O-])c1cc(F)ccc1O	1.88
CCNC(=O)Cn1cccc(O)c1=O	-0.74
CN(C)CCOc1ccccc1Cl	2.87
O=C1CN=C(c2ccccc2)c2ccc(C(F)(F)F)cc2N1	3.18
COC(=O)C(C)NP(=O)(OCC1C=CC(n2cc(C)c(=O)[nH]c2=O)O1)Oc1ccc(Cl)c(Cl)c1 (configuration not stated)	2.15
CNCc1ccc(C)cc1	1.96
CC(=NNC(=O)c1ccc([N+](=O)[O-])cc1)c1cnccn1	2.1
CNc1ccc2cc3ccc4c(c3nc2c1CO)COCN4S(C)(=O)=O	1.2
CCOC(=O)C1=C(C)NC(C)=C(C(=O)OC)C1C (configuration not stated)	3.27
Cc1cccc2c1OCN(CCO[N+](=O)[O-])C2=O	2.48
O=c1cc(-c2ccccc2)oc2ccc(Cl)cc12	3.92
CC(NC(=O)C(NC(=O)C(N)Cc1ccccc1)C(C)C)C(=O)O (stereo not drawn) (H-Phe-Val-Ala-OH; configuration not given here)	-2.19
CC[C@H](C)C(=O)O[C@H]1C[C@H](O)C=C2C=C[C@H](C)[C@H](CC[C@@H](O)C[C@@H](O)CC(=O)O)[C@H]21	2.18

Source: the OPERA property sets (Mansouri et al. 2018)
